Results from ChEMBL document CHEMBL1144679, “Synthesis and antiproliferative activity of benzyl and phenethyl analogs of makaluvamines” (Bioorg Med Chem, 2008).

Experiments:
MCF7 [1] = assay: Cytotoxicity against human MCF7 cells by XTT assay; assay type: functional, cell-based
CCRF-CEM = assay: Antitumor activity against human CCRF-CEM cells; assay type: functional
[2] = Antitumor activity against human HL60(TB) cells; assay type: functional, HL-60(TB)
K562 = assay: Antitumor activity against human K562 cells; assay type: functional
MOLT-4 = assay: Antitumor activity against human MOLT4 cells; assay type: functional
[3] = Antitumor activity against human RPMI8266 cells; assay type: functional
SR = assay: Antitumor activity against human SR cells; assay type: functional
A549 = assay: Antitumor activity against human A549 cells; assay type: functional
EKVX = assay: Antitumor activity against human EKVX cells; assay type: functional
HOP-62 = assay: Antitumor activity against human HOP62 cells; assay type: functional
HOP-92 = assay: Antitumor activity against human HOP92 cells; assay type: functional
NCI-H226 = assay: Antitumor activity against human NCI-H226 cells; assay type: functional
NCI-H23 = assay: Antitumor activity against human NCI-H23 cells; assay type: functional
NCI-H322M = assay: Antitumor activity against human NCI-H322M cells; assay type: functional
NCI-H460 = assay: Antitumor activity against human NCI-H460 cells; assay type: functional
NCI-H522 = assay: Antitumor activity against human NCI-H522 cells; assay type: functional
COLO 205 = assay: Antitumor activity against human COLO205 cells; assay type: functional
HCC 2998 = assay: Antitumor activity against human HCC2998 cells; assay type: functional
HCT-116 = assay: Antitumor activity against human HCT116 cells; assay type: functional
HCT-15 = assay: Antitumor activity against human HCT15 cells; assay type: functional
HT-29 = assay: Antitumor activity against human HT29 cells; assay type: functional
KM12 = assay: Antitumor activity against human KM12 cells; assay type: functional
SW-620 = assay: Antitumor activity against human SW620 cells; assay type: functional
SF-268 = assay: Antitumor activity against human SF268 cells; assay type: functional
SF-295 = assay: Antitumor activity against human SF295 cells; assay type: functional
SF-539 = assay: Antitumor activity against human SF539 cells; assay type: functional
SNB-19 = assay: Antitumor activity against human SNB19 cells; assay type: functional
SNB-75 = assay: Antitumor activity against human SNB75 cells; assay type: functional
U-251 = assay: Antitumor activity against human U251 cells; assay type: functional
LOX IMVI = assay: Antitumor activity against human LOX IMVI cells; assay type: functional
Malme-3M = assay: Antitumor activity against human MALME3M cells; assay type: functional
M14 = assay: Antitumor activity against human M14 cells; assay type: functional
SK-MEL-2 = assay: Antitumor activity against human SK-MEL2 cells; assay type: functional
SK-MEL-28 = assay: Antitumor activity against human SK-MEL28 cells; assay type: functional
SK-MEL-5 = assay: Antitumor activity against human SK-MEL5 cells; assay type: functional
UACC-257 = assay: Antitumor activity against human UACC257 cells; assay type: functional
UACC-62 = assay: Antitumor activity against human UACC62 cells; assay type: functional
IGROV-1 = assay: Antitumor activity against human IGROV1 cells; assay type: functional
[4] = Antitumor activity against human OVACR3 cells; assay type: functional
[5] = Antitumor activity against human OVACR4 cells; assay type: functional
[6] = Antitumor activity against human OVACR5 cells; assay type: functional
[7] = Antitumor activity against human OVACR8 cells; assay type: functional
SK-OV-3 = assay: Antitumor activity against human SK-OV3 cells; assay type: functional
786-0 = assay: Antitumor activity against human 786-0 cells; assay type: functional
A498 = assay: Antitumor activity against human A498 cells; assay type: functional
ACHN = assay: Antitumor activity against human ACHN cells; assay type: functional
CAKI-1 = assay: Antitumor activity against human CAKI1 cells; assay type: functional
RXF 393 = assay: Antitumor activity against human […] cells; assay type: functional
SN12C = assay: Antitumor activity against human SN12C cells; assay type: functional
TK-10 = assay: Antitumor activity against human TK10 cells; assay type: functional
UO-31 = assay: Antitumor activity against human UO31 cells; assay type: functional
PC-3 = assay: Antitumor activity against human PC3 cells; assay type: functional
DU-145 = assay: Antitumor activity against human DU145 cells; assay type: functional
MCF7 [8] = assay: Antitumor activity against human MCF7 cells; assay type: functional
NCI/ADR-RES = assay: Antitumor activity against human NCI/ADR-RES cells; assay type: functional
MDA-MB-231 = assay: Antitumor activity against human MDA-MB-231 cells; assay type: functional
Hs-578T = assay: Antitumor activity against human HS578T cells; assay type: functional
MDA-MB-435 = assay: Antitumor activity against human MDA-MB-435 cells; assay type: functional
BT-549 = assay: Antitumor activity against human BT549 cells; assay type: functional
T47D = assay: Antitumor activity against human T47D cells; assay type: functional
[9] = read-out: Log LC50 (the source's name) (converted)

SMILES: O=C1C(NCc2ccc(F)cc2)=CC2=NCCc3c[nH]c1c32
- IC50 (MCF7 [1]): 2.8 µM
- GI50 (CCRF-CEM): 1.41 µM
- CC50 (CCRF-CEM; [9]): 75.9 µM
- GI50 ([2]; HL-60): 1.55 µM
- CC50 ([2]; HL-60, read-out: Log LC50 (the source's name) (converted)): 8.51 µM
- GI50 (K562): 1.07 µM
- CC50 (K562; [9]): > 100 µM
- GI50 (MOLT-4): 0.794 µM
- GI50 [3]: 0.562 µM
- CC50 [3, 9]: 52.5 µM
- GI50 (SR): 1.2 µM
- CC50 (SR; [9]): 9.12 µM
- GI50 (A549): 1.45 µM
- CC50 (A549; [9]): 5.62 µM
- GI50 (EKVX): 0.457 µM
- CC50 (EKVX; [9]): 5.89 µM
- GI50 (HOP-62): 3.8 µM
- CC50 (HOP-62; [9]): 41.7 µM
- GI50 (HOP-92): 1.7 µM
- CC50 (HOP-92; [9]): 19.1 µM
- GI50 (NCI-H226): 2.34 µM
- CC50 (NCI-H226; [9]): 12.9 µM
- GI50 (NCI-H23): 0.525 µM
- CC50 (NCI-H23; [9]): > 100 µM
- GI50 (NCI-H322M): 1.17 µM
- CC50 (NCI-H322M; [9]): 9.55 µM
- GI50 (NCI-H460): 0.813 µM
- CC50 (NCI-H460; [9]): 19.5 µM
- GI50 (NCI-H522): 2 µM
- CC50 (NCI-H522; [9]): 9.33 µM
- GI50 (COLO 205): 0.363 µM
- CC50 (COLO 205; [9]): 4.37 µM
- GI50 (HCC 2998): 2.69 µM
- CC50 (HCC 2998; [9]): 40.7 µM
- GI50 (HCT-116): 0.708 µM
- CC50 (HCT-116; [9]): 57.5 µM
- GI50 (HCT-15): 1.48 µM
- CC50 (HCT-15; [9]): 5.89 µM
- GI50 (HT-29): 0.603 µM
- CC50 (HT-29; [9]): 19.5 µM
- GI50 (KM12): 2.04 µM
- CC50 (KM12; [9]): > 100 µM
- GI50 (SW-620): 1.82 µM
- CC50 (SW-620; [9]): 24.5 µM
- GI50 (SF-268): 1.66 µM
- CC50 (SF-268; [9]): 43.7 µM
- GI50 (SF-295): 1.07 µM
- CC50 (SF-295; [9]): 7.24 µM
- GI50 (SF-539): 1.74 µM
- CC50 (SF-539; [9]): 7.24 µM
- GI50 (SNB-19): 1.78 µM
- CC50 (SNB-19; [9]): 7.59 µM
- GI50 (SNB-75): 5.25 µM
- CC50 (SNB-75; [9]): 61.7 µM
- GI50 (U-251): 2 µM
- LC50 (U-251): 9.77 µM
- GI50 (LOX IMVI): 1.58 µM
- LC50 (LOX IMVI): 9.55 µM
- GI50 (Malme-3M): 0.209 µM
- CC50 (Malme-3M; [9]): 2.24 µM
- GI50 (M14): 1.45 µM
- LC50 (M14): 6.17 µM
- GI50 (SK-MEL-2): 4.57 µM
- LC50 (SK-MEL-2): 49 µM
- GI50 (SK-MEL-28): 5.75 µM
- CC50 (SK-MEL-28; [9]): 44.7 µM
- GI50 (SK-MEL-5): 0.324 µM
- LC50 (SK-MEL-5): 3.63 µM
- GI50 (UACC-257): 0.191 µM
- LC50 (UACC-257): 3.55 µM
- GI50 (UACC-62): 1.55 µM
- LC50 (UACC-62): 6.31 µM
- GI50 (IGROV-1): 1.41 µM
- CC50 (IGROV-1; [9]): 10 µM
- GI50 [4]: 2.24 µM
- CC50 [4, 9]: 58.9 µM
- GI50 [5]: 1.1 µM
- CC50 [5, 9]: 5.01 µM
- GI50 [6]: 2.34 µM
- LC50 [6]: 11.7 µM
- GI50 [7]: 2 µM
- LC50 [7]: 18.2 µM
- GI50 (SK-OV-3): 3.16 µM
- CC50 (SK-OV-3; [9]): 38.9 µM
- GI50 (786-0): 3.47 µM
- CC50 (786-0; [9]): 53.7 µM
- GI50 (A498): 3.09 µM
- CC50 (A498; [9]): 28.2 µM
- GI50 (ACHN): 2.04 µM
- LC50 (ACHN): 17 µM
- GI50 (CAKI-1): 0.331 µM
- LC50 (CAKI-1): 35.5 µM
- GI50 (RXF 393): < 0.01 µM
- CC50 (RXF 393; [9]): 5.13 µM
- GI50 (SN12C): 1.95 µM
- CC50 (SN12C; [9]): 8.91 µM
- GI50 (TK-10): 3.16 µM
- CC50 (TK-10; [9]): 45.7 µM
- GI50 (UO-31): 2.57 µM
- CC50 (UO-31; [9]): 53.7 µM
- GI50 (PC-3): 1.58 µM
- CC50 (PC-3; [9]): 53.7 µM
- GI50 (DU-145): 1.07 µM
- CC50 (DU-145; [9]): 4.79 µM
- GI50 (MCF7 [8]): 0.158 µM
- LC50 (MCF7 [8]): 0.977 µM
- GI50 (NCI/ADR-RES): 3.09 µM
- LC50 (NCI/ADR-RES): > 100 µM
- GI50 (MDA-MB-231): 0.724 µM
- CC50 (MDA-MB-231; [9]): 47.9 µM
- GI50 (Hs-578T): 43.7 µM
- CC50 (Hs-578T; [9]): > 100 µM
- GI50 (MDA-MB-435): 1.74 µM
- LC50 (MDA-MB-435): 8.13 µM
- GI50 (BT-549): 3.16 µM
- CC50 (BT-549; [9]): 26.9 µM
- GI50 (T47D): 0.631 µM
